Measurements reported in patent US10131652B2, “Pyrimidinyloxy benzene derivatives as herbicides” (E. I. DU PONT DE NEMOURS AND COMPANY, priority 2014, dated 2018).

How the values were obtained:
Type in all cases: in vivo
[1] = test system: ducksalad (Heteranthera limosa); test: Test C flooded paddy test plant response; settings: Flood, 250 g ai/ha; scale of 0 to 100 where 0 is no effect and 100 is complete control; 13 to 15 days
How it was run: (§1)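 Scale 0 (no effect) to 100 (complete control), assigned visually versus controls after 13–15 d greenhouse. Application: directly to paddy water, 3 cm flood depth kept constant, 2-leaf stage.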

[2] = test system: small-flower umbrella sedge (Cyperus difformis); test: Test C flooded paddy test plant response; settings: Flood, 250 g ai/ha; scale of 0 to 100 where 0 is no effect and 100 is complete control; 13 to 15 days
How it was run: as §1

rice (Oryza sativa) = test: Test C flooded paddy test plant response; settings: Flood, 250 g ai/ha; scale of 0 to 100 where 0 is no effect and 100 is complete control; 13 to 15 days
How it was run: as §1

[3] = test system: barnyardgrass (Echinochloa crus-galli); test: Test C flooded paddy test plant response; settings: Flood, 250 g ai/ha; scale of 0 to 100 where 0 is no effect and 100 is complete control; 13 to 15 days
How it was run: as §1

corn (Zea mays) = test: Test B pre-/postemergence plant response
How it was run: (§2)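 Scoring used a 0–100 scale (100 = complete control) by visual comparison with untreated plants after approximately 10 days in the greenhouse. Compounds, in surfactant-containing non-phytotoxic solvent, were sprayed onto soil at planting or onto 2–10 cm seedlings.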

[4] = test system: velvetleaf (Abutilon theophrasti); test: Test B pre-/postemergence plant response
How it was run: as §2

[5] = test system: wheat (Triticum aestivum); test: Test B pre-/postemergence plant response
How it was run: as §2

[6] = test system: morningglory (Ipomoea spp.); test: Test B pre-/postemergence plant response
How it was run: as §2

[7] = test system: giant foxtail (Setaria faberii); test: Test B pre-/postemergence plant response
How it was run: as §2

[8] = test system: large (Lg) crabgrass (Digitaria sanguinalis); test: Test B pre-/postemergence plant response
How it was run: as §2

[9] = test system: barnyardgrass (Echinochloa crus-galli); test: Test B pre-/postemergence plant response
How it was run: as §2

[10] = test system: pigweed (Amaranthus retroflexus); test: Test B pre-/postemergence plant response
How it was run: as §2

[11] = 125 g ai/ha, postemergence, 0 to 100 scale, 0 no effect, 100 complete control
[12] = Postemergence, 500 g ai/ha, 0 to 100 scale (0 no effect, 100 complete control)
[13] = Preemergence, 125 g ai/ha, 0 to 100 scale (0 no effect, 100 complete control)
[14] = Preemergence, 500 g ai/ha, 0 to 100 scale where 0 is no effect and 100 is complete control

| Structure (SMILES) | Ducksalad plant response rating [1] | Sedge, Umbrella plant response rating [2] | Rice plant response rating (rice (Oryza sativa)) | Barnyardgrass plant response rating [3] | Plant response rating, Corn (corn (Zea mays); [11]) | Plant response rating, Corn (corn (Zea mays); [12]) | Corn plant response rating (corn (Zea mays); [13]) | Plant response rating, Corn (corn (Zea mays); [14]) | Plant response rating, Velvetleaf [4, 11] | Plant response rating, Velvetleaf [4, 12] | Velvetleaf plant response rating [4, 13] | Plant response rating, Velvetleaf [4, 14] | Plant response rating, Wheat [5, 11] | Plant response rating, Wheat [5, 12] | Wheat plant response rating [5, 13] | Plant response rating, Wheat [5, 14] | Plant response rating, Morningglory [6, 11] | Plant response rating, Morningglory [6, 12] | Morningglory plant response rating [6, 13] | Plant response rating, Morningglory [6, 14] | other results |
| --- | --- | --- | --- | --- | --- | --- | --- | --- | --- | --- | --- | --- | --- | --- | --- | --- | --- | --- | --- | --- | --- |
| Cc1noc(C)c1-c1c(C#N)cccc1Oc1ncc(Cl)cn1 [Compound 134] | 40 | 75 | 0 | 0 | 10 | 80 | 20 | 60 | 40 | 90 | 40 | 100 | 10 | 30 | 20 | 20 | 10 | 90 | 10 | 80 | Plant response rating, Foxtail, Giant [7, 11]: 10; Plant response rating, Foxtail, Giant [7, 12]: 90; Foxtail, Giant plant response rating [7, 13]: 90; Plant response rating, Foxtail, Giant [7, 14]: 100; Plant response rating, Crabgrass, Large [8, 11]: 10; Plant response rating, Crabgrass, Large [8, 12]: 100; Crabgrass, Large plant response rating [8, 13]: 100; Plant response rating, Crabgrass, Large [8, 14]: 100; Plant response rating, Barnyardgrass [9, 11]: 20; Plant response rating, Barnyardgrass [9, 12]: 90; Barnyardgrass plant response rating [9, 13]: 70; Plant response rating, Barnyardgrass [9, 14]: 90; Plant response rating, Pigweed [10, 11]: 60; Plant response rating, Pigweed [10, 12]: 100; Pigweed plant response rating [10, 13]: 100; Plant response rating, Pigweed [10, 14]: 100 |
| Clc1ccc(-c2c(Br)cccc2Oc2ncc(Cl)cn2)nc1 [Compound 135] | 0 | 0 | 0 | 0 | 10 | 30 | 0 | 0 | 40 | 80 | 20 | 60 | 0 | 10 | 0 | 0 | 20 | 50 | 0 | 10 | Plant response rating, Foxtail, Giant [7, 11]: 10; Plant response rating, Foxtail, Giant [7, 12]: 60; Foxtail, Giant plant response rating [7, 13]: 60; Plant response rating, Foxtail, Giant [7, 14]: 100; Plant response rating, Crabgrass, Large [8, 11]: 10; Plant response rating, Crabgrass, Large [8, 12]: 50; Crabgrass, Large plant response rating [8, 13]: 80; Plant response rating, Crabgrass, Large [8, 14]: 100; Plant response rating, Barnyardgrass [9, 11]: 10; Plant response rating, Barnyardgrass [9, 12]: 40; Barnyardgrass plant response rating [9, 13]: 10; Plant response rating, Barnyardgrass [9, 14]: 60; Plant response rating, Pigweed [10, 11]: 100; Plant response rating, Pigweed [10, 12]: 100; Pigweed plant response rating [10, 13]: 90; Plant response rating, Pigweed [10, 14]: 100 |
